Experimental data: patent US8901133B2, “Heterocyclic compounds and uses thereof” (Infinity Pharmaceuticals, Inc., priority 2010, dated 2014)

Experiments:
Type in all cases: biochemical
PI3Kα = target: T1, PI3Kα (Homo sapiens, UniProt P42336); assay: PI3 Kinase HTRF assay, PI3Kα; conditions: 10 μM PIP2, 10 μM ATP; read-out: PI3K α IC50
T1 construct: purchased Millipore Corporation 14-602-K
Source text: (§1) A PI3 Kinase HTRF® assay kit (cat No. 33-016) purchased from Millipore Corporation was used to screen compounds disclosed herein. This assay used specific, high affinity binding of the GRP1 pleckstrin homology (PH) domain to PIP3, the product of a Class 1A or 1B PI3 Kinase acting on its physiological substrate PIP2. During the detection phase of the assay, a complex was generated between the GST-tagged PH domain and biotinylated short chain PIP3. The biotinylated PIP3 and the GST-tagged PH domain recruited fluorophores (Streptavidin-Allophycocyanin and Europium-labeled anti-GST respectively) to form the fluorescence resonance energy transfer (FRET) architecture, generating a stable time-resolved FRET signal. The FRET complex was disrupted in a competitive manner by non-biotinylated PIP3, a product formed in the PI3 Kinase assay.
(§2) PI3 Kinase α, β, γ and δ activity was assayed using the PI3 Kinase HTRF® assay kit (catalogue No. 33-016) purchased from Millipore Corporation. Purified recombinant PI3Kα (catalogue No. 14-602-K), PI3Kβ (catalogue No. 14-603-K), PI3Kγ (catalogue No. 14-558-K) and PI3Kδ (catalogue No. 14-604-K) were obtained from Millipore Corporation. Purified recombinant PI3K enzyme was used to catalyze the phosphorylation of phosphatidylinositol 4,5-bisphosphate (PIP2 at 10 μM) to phosphatidylinositol 3,4,5-trisphosphate (PIP3) in the presence of 10 μM ATP. The assay was carried out in 384-well format and detected using a Perkin Elmer En Vision Xcite Multilabel Reader. Emission ratios were converted into percent inhibitions and imported into GraphPad Prism software. The concentration necessary to achieve inhibition of enzyme activity by 50% (IC50) was calculated using concentrations ranging from 20 μM to 0.1 nM (12-point curve). IC50 values were determined using a nonlinear regression model available in GraphPad Prism 5. […]

PI3Kδ = target: T2, PI3Kδ (Homo sapiens, UniProt O00329); assay: PI3 Kinase HTRF assay, PI3Kδ; conditions: 10 μM PIP2, 10 μM ATP; read-out: PI3K δ IC50
T2 construct: purchased Millipore Corporation 14-604-K
T2 sequence (O00329 whole entry): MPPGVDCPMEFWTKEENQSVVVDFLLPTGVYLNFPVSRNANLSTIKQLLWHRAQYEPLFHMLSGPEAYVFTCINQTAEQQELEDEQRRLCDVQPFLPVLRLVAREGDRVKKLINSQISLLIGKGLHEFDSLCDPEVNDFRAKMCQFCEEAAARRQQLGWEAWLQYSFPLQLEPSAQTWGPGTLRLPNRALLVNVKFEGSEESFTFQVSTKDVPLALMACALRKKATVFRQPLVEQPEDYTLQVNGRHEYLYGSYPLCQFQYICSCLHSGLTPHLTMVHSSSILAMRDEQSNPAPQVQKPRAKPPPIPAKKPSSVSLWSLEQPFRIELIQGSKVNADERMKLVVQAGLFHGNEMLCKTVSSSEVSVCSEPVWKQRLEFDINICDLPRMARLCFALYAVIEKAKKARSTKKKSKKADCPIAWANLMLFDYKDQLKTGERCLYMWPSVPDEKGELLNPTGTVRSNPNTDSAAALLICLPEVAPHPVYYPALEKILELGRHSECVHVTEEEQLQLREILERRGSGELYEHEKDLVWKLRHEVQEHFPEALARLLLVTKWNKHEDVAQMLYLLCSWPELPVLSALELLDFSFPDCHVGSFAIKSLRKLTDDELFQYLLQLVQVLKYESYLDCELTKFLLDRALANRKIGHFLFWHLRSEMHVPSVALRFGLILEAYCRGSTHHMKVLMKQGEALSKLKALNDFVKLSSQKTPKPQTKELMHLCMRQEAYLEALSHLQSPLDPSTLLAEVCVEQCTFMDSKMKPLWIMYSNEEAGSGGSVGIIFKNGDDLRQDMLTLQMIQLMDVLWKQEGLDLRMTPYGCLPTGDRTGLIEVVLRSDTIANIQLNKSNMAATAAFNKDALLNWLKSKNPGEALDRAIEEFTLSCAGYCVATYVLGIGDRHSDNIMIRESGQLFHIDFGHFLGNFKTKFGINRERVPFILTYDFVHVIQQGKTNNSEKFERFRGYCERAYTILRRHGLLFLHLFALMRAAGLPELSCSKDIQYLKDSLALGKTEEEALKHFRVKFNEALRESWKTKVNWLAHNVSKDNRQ
T2 sequence (P27986 whole entry partner): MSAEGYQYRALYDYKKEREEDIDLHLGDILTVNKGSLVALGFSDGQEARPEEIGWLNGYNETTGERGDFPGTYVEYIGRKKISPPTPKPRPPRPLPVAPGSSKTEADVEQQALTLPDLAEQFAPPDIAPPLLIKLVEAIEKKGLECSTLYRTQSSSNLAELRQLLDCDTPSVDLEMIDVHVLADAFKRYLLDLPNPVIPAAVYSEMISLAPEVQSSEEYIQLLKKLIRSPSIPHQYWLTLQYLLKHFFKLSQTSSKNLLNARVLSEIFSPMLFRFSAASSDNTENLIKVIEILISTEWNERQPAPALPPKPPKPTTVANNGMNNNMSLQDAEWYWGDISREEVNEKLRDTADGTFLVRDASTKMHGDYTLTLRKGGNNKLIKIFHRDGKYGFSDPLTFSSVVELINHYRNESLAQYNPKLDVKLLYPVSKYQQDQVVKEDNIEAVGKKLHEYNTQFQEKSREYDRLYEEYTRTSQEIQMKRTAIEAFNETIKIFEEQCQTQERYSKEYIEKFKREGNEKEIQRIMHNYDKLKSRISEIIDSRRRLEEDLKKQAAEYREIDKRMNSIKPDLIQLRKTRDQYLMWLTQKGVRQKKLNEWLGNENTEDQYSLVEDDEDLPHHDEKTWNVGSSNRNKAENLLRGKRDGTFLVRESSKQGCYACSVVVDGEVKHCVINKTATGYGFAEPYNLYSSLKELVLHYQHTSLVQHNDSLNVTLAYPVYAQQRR
Source text: as §1, §2

PI3Kγ = target: T3, PI3Kγ (Homo sapiens, UniProt P48736); assay: PI3 Kinase HTRF assay, PI3Kγ; conditions: 10 μM PIP2, 10 μM ATP; read-out: PI3K γ IC50
T3 construct: purchased Millipore Corporation 14-558-K
T3 sequence (P48736 whole entry): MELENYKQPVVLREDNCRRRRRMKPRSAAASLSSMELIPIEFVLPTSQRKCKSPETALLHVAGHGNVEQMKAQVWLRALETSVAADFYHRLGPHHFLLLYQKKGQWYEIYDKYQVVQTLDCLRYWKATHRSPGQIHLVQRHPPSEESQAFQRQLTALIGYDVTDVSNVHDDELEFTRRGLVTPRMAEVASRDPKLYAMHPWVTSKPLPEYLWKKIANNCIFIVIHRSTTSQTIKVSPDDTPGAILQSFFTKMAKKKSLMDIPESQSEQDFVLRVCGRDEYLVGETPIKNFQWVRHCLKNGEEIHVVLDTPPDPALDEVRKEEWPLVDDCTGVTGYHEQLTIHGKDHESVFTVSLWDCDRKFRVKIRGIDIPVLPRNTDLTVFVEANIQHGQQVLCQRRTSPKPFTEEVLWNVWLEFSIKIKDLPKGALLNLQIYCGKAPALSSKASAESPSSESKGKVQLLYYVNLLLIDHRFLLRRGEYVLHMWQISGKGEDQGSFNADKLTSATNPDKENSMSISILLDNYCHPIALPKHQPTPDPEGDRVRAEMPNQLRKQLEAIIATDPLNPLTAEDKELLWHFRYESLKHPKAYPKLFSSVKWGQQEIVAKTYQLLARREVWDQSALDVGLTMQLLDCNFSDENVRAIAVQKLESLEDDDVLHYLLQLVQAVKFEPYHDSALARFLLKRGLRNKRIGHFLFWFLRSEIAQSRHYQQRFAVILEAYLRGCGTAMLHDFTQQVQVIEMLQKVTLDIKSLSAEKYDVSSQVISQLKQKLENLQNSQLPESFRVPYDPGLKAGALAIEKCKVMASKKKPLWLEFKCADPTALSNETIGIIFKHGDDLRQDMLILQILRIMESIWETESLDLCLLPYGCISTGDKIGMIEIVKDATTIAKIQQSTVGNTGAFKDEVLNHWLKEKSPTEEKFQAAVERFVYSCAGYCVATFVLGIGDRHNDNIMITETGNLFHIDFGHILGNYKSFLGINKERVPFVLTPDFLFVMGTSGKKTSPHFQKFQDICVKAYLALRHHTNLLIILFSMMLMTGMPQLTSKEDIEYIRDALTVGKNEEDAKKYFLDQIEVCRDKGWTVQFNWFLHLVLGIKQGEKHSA
Source text: as §1, §2

PI3Kβ = target: T4, PI3Kβ (Homo sapiens, UniProt P42338); assay: PI3 Kinase HTRF assay, PI3Kβ; conditions: 10 μM PIP2, 10 μM ATP; read-out: PI3K β IC50
T4 construct: purchased Millipore Corporation 14-603-K
T4 sequence (P42338 whole entry): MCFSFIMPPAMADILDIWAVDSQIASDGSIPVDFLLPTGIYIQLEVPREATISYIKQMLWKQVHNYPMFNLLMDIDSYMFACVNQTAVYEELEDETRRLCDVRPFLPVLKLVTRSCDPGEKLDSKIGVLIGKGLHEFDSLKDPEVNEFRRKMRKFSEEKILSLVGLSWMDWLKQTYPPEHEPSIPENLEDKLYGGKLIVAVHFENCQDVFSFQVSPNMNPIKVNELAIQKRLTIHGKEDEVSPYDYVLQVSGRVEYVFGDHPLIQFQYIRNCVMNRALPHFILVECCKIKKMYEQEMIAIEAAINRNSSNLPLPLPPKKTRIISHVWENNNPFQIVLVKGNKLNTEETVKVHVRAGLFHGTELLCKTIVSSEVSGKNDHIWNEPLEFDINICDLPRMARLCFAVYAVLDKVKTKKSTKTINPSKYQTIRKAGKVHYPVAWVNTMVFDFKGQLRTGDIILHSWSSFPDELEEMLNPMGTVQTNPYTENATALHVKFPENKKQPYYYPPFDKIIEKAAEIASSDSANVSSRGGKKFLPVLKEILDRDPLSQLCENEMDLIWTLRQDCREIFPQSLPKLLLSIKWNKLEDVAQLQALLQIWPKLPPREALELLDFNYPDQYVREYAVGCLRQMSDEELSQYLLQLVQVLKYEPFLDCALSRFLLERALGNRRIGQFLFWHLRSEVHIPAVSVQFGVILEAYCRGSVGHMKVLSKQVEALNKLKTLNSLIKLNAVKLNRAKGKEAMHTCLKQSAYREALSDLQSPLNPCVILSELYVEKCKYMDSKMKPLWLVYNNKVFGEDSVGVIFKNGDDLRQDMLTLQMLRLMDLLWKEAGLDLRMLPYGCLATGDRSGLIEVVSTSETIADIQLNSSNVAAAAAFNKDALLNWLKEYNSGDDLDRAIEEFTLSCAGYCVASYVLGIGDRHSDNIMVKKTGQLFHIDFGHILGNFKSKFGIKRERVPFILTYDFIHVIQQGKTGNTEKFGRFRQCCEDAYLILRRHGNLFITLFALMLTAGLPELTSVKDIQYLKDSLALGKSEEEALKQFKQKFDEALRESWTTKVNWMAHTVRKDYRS
T4 sequence (P27986 whole entry partner): as the sequence (P27986 whole entry partner) above
Source text: as §1, §2

T1 sequence (P42336 whole entry): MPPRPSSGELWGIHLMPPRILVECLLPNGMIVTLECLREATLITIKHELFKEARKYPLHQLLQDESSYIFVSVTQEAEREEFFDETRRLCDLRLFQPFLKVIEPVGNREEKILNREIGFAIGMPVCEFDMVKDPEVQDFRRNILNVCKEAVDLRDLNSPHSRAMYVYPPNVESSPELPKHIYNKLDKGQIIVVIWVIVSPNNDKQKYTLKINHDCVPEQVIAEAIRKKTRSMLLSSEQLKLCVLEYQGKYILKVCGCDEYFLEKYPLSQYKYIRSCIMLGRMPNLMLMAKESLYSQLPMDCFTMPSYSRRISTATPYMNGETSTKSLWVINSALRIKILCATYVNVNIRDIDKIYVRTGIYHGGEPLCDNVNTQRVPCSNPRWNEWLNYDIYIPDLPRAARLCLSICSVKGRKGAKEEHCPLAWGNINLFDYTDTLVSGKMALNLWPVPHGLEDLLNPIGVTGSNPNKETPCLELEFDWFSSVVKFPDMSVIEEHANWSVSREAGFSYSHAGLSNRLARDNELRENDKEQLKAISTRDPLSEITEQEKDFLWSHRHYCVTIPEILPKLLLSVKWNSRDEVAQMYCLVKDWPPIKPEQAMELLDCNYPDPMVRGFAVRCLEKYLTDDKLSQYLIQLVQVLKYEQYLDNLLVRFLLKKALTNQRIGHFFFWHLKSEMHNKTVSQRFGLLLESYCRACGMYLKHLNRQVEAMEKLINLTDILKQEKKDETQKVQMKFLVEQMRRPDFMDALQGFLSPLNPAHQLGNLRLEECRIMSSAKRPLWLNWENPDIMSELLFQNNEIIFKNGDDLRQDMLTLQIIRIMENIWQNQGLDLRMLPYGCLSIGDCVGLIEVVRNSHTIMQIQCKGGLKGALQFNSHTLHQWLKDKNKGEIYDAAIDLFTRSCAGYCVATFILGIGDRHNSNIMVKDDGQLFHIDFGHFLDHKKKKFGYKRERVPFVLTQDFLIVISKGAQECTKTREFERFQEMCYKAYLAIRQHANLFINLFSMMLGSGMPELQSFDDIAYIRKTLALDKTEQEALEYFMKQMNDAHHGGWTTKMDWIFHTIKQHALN
T1 sequence (P27986 whole entry partner): as the sequence (P27986 whole entry partner) above

Row | SMILES | IC50 (PI3Kα) [µM] | IC50 (PI3Kδ) [µM] | IC50 (PI3Kγ) [µM] | IC50 (PI3Kβ) [µM]
1 | C[C@H](Nc1ncnc2cccnc12)c1cc2cccc(Cl)c2c(N2CCN(C)CC2)n1 [Compound 96] | < 1 | < 0.1 | < 0.1 | < 1
2 | C[C@H](Nc1ccnc2ccnn12)c1cc2cccc(Cl)c2c(N2CCN(C)CC2)n1 [Compound 97] | > 10 | < 0.1 | > 10 | < 10
3 | C[C@H](Nc1ncnc2[nH]cnc12)c1cc2cccc(F)c2c(N2CCN(C)CC2)n1 [Compound 100] | > 10 | < 0.1 | > 10 | > 10
4 | C[C@H](Nc1ncnc2cccnc12)c1cc2cccc(Cl)c2c(OCCN2CCCC2)n1 [Compound 105] | < 1 | < 0.1 | < 1 | < 10
5 | C[C@H](Nc1ccnc2ccnn12)c1cc2cccc(Cl)c2c(OCCN2CCCC2)n1 [Compound 106] | > 10 | < 0.1 | < 10 | < 10
6 | Cc1cccc2cc([C@H](C)Nc3ncnc4[nH]cnc34)nc(N3CCN(C)CC3)c12 [Compound 109] | > 10 | < 0.1 | < 10 | < 10
7 | C[C@H](Nc1ncnc2[nH]cnc12)c1cc2cccc(C(F)(F)F)c2c(N2CCN(C)CC2)n1 [Compound 111] | > 10 | < 1 | < 10 | < 10
8 | C[C@H](Nc1ncnc2cccnc12)c1cc2cccc(Cl)c2c(C(=O)N2CCOCC2)n1 [Compound 115] | < 10 | < 0.1 | < 1 | < 10
9 | C[C@H](NC(=O)c1cnc2cccnn12)c1cc2cccc(Cl)c2c(C(=O)N2CCOCC2)n1 [Compound 117] | > 10 | < 1 | < 10 | < 10
10 | C[C@H](NC(=O)c1nccnc1N)c1cc2cccc(Cl)c2c(C(=O)N2CCOCC2)n1 [Compound 118] | > 10 | < 1 | < 10 | < 10
11 | C[C@H](Nc1ncnc2[nH]cnc12)c1cc2cccc(Cl)c2c(C(=O)N(C)C2CCOCC2)n1 [Compound 126] | > 10 | < 1 | < 10 | > 10

The next lines start with the values.

Row | IC50 (PI3Kα) [µM] | IC50 (PI3Kδ) [µM] | IC50 (PI3Kγ) [µM] | IC50 (PI3Kβ) [µM] | SMILES
12 | > 10 | < 10 | < 1 | > 10 | C[C@H](Nc1ncnc2[nH]cnc12)c1cc2cccc(Cl)c2c(OCC(=O)O)n1 [Compound 128, (S)-2-(3-(1-(9H-purin-6-ylamino)ethyl)-8-chloroisoquinolin-1-yloxy)acetic acid]
13 | > 10 | < 0.1 | < 10 | < 10 | C[C@H](Nc1nc(N)ncc1C(F)(F)F)c1cc2cccc(Cl)c2c(CCN2CCOCC2)n1 [Compound 130]
14 | > 10 | < 1 | > 10 | > 10 | C[C@H](Nc1ncnc2[nH]cnc12)c1cc2cccc(Cl)c2c(S(=O)(=O)CCN2CCOCC2)n1 [Compound 134]
15 | > 10 | < 1 | < 10 | < 10 | CNC(=O)NCCOc1nc([C@H](C)Nc2ncnc3[nH]cnc23)cc2cccc(Cl)c12 [Compound 139]
16 | > 10 | < 1 | > 10 | < 10 | C[C@H](Nc1ncnc2[nH]cnc12)c1cc2cccc(-c3cnn(C)c3)c2c(N2CCN(C)CC2)n1 [Compound 142]
17 | > 10 | < 1 | < 10 | > 10 | C[C@H](Nc1ncnc2cccnc12)c1cc2cccc(Cl)c2c(C(=O)NC2CCOCC2)n1 [Compound 143]
18 | > 10 | < 1 | < 10 | > 10 | Cc1cccc2cc([C@H](C)Nc3ncnc4[nH]cnc34)nc(C(=O)N3CCOCC3)c12 [Compound 147]
19 | < 10 | < 1 | < 10 | > 10 | C[C@H](Nc1ncnc2cccnc12)c1cc2cccc(-c3cnn(C)c3)c2c(OCCN2CCCC2)n1 [Compound 148]
